Source: EPA's ToxValDB 9.5 (doi:10.2903/j.efsa.2014.3508)

Tests used:
Apis mellifera = conditions: acute, mortality
Colinus virginianus = conditions: acute, oral, mortality
Coturnix japonica = conditions: reproduction developmental; duration: 6 weeks; reproduction
Daphnia magna = conditions: chronic/long-term; duration: 21 days; mobility
Lepomis macrochirus = conditions: acute; duration: 96 hours; mortality
Oncorhynchus mykiss = conditions: chronic/long-term; duration: 87 days; growth
Oryctolagus sp. = conditions: developmental; development
Aphidius rhopalosiphi = assay: LR50; higher = less toxic; conditions: acute; duration: 48 hours; mortality
Typhlodromus pyri = assay: LR50; higher = less toxic; conditions: chronic/long-term; duration: 7 days; mortality

Question: For CCOc1nc(NC)nc(NC(=O)NS(=O)(=O)c2ccccc2C(=O)OC)n1 [Ethametsulfuron-methyl], which LD50 (Apis mellifera; duration: 48 hours, oral, unspecified) is on record?
Answer: The LD50 was 40.8 µg/piece.

Question: And the LD50 (Apis mellifera; duration: 72 hours, dermal)?
Answer: The LD50 was 4.62 µg/piece.

Question: And the LC50 (Colinus virginianus; duration: 5 days, diet)?
Answer: The LC50 was > 1160 mg/kg-day.

Question: And the LD50 (Colinus virginianus)?
Answer: The LD50 was 2250 mg/kg-day.

Question: What about the NOAEL (Coturnix japonica) of the same compound?
Answer: Its NOAEL is 229 mg/kg-day.

Question: What about the NOEC (Daphnia magna) of the same compound?
Answer: The NOEC was 4.7 mg/L.

Question: What about the LC50 (Lepomis macrochirus) of the same compound?
Answer: The LC50 was > 123 µg/mL.

Question: And the NOEC (Oncorhynchus mykiss)?
Answer: Its NOEC is 5.4 mg/L.

Question: And the NOAEL (Oryctolagus sp.)?
Answer: The NOAEL was < 250 mg/kg-day.

Question: And the LD50 (Rattus norvegicus; acute, oral, mortality)?
Answer: Its LD50 is > 5000 mg/kg-day.

Question: What about the NOAEL (Rattus norvegicus; chronic, duration: 2 years, clinical chemistry) of the same compound?
Answer: Its NOAEL is 21 mg/kg-day.

Question: And the LC50 (Tagia sp.; acute, duration: 14 days, mortality)?
Answer: Its LC50 is 116 mg/kg.

Question: And the NOEC (Tagia sp.; chronic/long-term, duration: 56 days, reproduction)?
Answer: The NOEC was 27.3 mg/kg.

Question: And the LR50 (Aphidius rhopalosiphi)?
Answer: The LR50 was > 18.8 g/ha.

Question: And the LR50 (Typhlodromus pyri)?
Answer: The LR50 was 11.4 g/ha.
